These results are taken from ChEMBL document CHEMBL1147235, “Isolation and structure determination of lyngbyastatin 3, a lyngbyastatin 1 homologue from the marine cyanobacterium Lyngbya majuscula. Determination of the configuration of the 4-amino-2,2-dimethyl-3-oxopentanoic acid unit in majusculamide C, dolastatin 12, lyngbyastatin 1, and lyngbyastatin 3 …” (J Nat Prod, 2003).

The IC50 is the concentration at which inhibition is half-maximal. The low end stands for higher potency, the high end for lower potency.

Activity calls are given as the source filed them. The rule behind the calls is not given here. *1 amine or outer side, *2 acyl side, *3 side chain or, on linkers, in order; H or OH if unused. Where a SMILES comes first, the peptide text is derived from it. [ ]: non-standard residue; d: D form. X2 = CCC[C@@H](N[*:1])[C@H](C)C(=O)O[C@H](C(=O)[*:2])[C@H](C)CC; X1 = C[C@H](N[*:1])C(=O)C(C)(C)C(=O)[*:2]; NMeY = CN[C@@H](Cc1ccc(O)cc1)C(=O)O; NMeL = CN[C@@H](CC(C)C)C(=O)O; NMeV = CN[C@H](C(=O)O)C(C)C; NMeA = CN[C@@H](C)C(=O)O

One assay relates to KB. The experiment in a line: Cytotoxicity against human KB cells. The class given is functional, cell-based.
The test system of the next assay is LoVo. The experiment in a line: Cytotoxicity against human LoVo cells. The class given is functional, cell-based.
The subject of another assay is MC-38. The experiment in a line: Antitumor activity against mouse colon 38 cells implanted mouse. The class given is functional, cell-based.
The next assay deals with Mus musculus. Description: Antitumor activity against mouse mammary adenocarcinoma 16/C cells implanted mouse. The class given is functional.

Consider `CCC[C@H]1NC(=O)[C@H](C)N(C)C(=O)C(C)(C)C(=O)[C@H](C)NC(=O)[C@H](Cc2ccc(OC)cc2)N(C)C(=O)[C@H](C(C)C)N(C)C(=O)CNC(=O)[C@H](CC(C)C)N(C)C(=O)CNC(=O)[C@H]([C@H](C)CC)OC(=O)[C@H]1C` [lyngbyastatin 3] (cyclo(G[NMeL]G[NMeV][NMeY](Me)[X1][NMeA][X2])), for which the IC50 in the assay on KB worked out at 0.032 µM; in the assay on LoVo, 0.4 µM. Further, the outcome in the assay with MC-38 and in the assay on Mus musculus was inactive.
